This is an account of results in patent US20170001990A1 (Genentech, Inc., priority 2014, published 2017).

The structures appear in SMILES notation.

For this test, the target named is Human recombinant carboxy-terminal his-tagged LDHA (amino acids 2-332) (Homo sapiens, UniProt P00338). As to the kind of experiment: LDHA enzyme inhibition assay (NADH fluorescence). Particulars: LDHA IC50 (μM), 1 nM LDHA, NADH and pyruvate, stereochemistry of tested sample given.
One may read the IC50 as the midpoint of a concentration-inhibition curve. For the compound `Cc1cc(Oc2cccc(C3(c4ccsc4)CC(=O)C(Sc4ccccc4Cl)C(=O)N3)n2)ccc1F` (stereo not shown) [Example 51, 5-((2-chlorophenyl)thio)-6′-(4-fluoro-3-methyl-phenoxy)-4-hydroxy-2-(thiophen-3-yl)-2,3-dihydro-[2,2′-bipyridin]-6(1H)-one], the IC50 turned out to be 0.149 µM. Then `O=C1CC(c2ccsc2)(c2cccc(Oc3ccccc3F)n2)NC(=O)C1Sc1ccccc1Cl` (stereo not shown) [Example 52, 3-(2-chlorophenyl)sulfanyl-6-[6-(2-fluorophenoxy)-2-pyridyl]-6-(3-thienyl)piperidine-2,4-dione], with 0.045 µM. Then `O=C1CC(c2ccsc2)(c2cccc(Oc3cccc(F)c3F)n2)NC(=O)C1Sc1ccccc1Cl` (stereo not shown) [Example 53, 3-(2-chlorophenyl)sulfanyl-6-[6-(2,3-difluoro-phenoxy)-2-pyridyl]-6-(3-thienyl)piperidine-2,4-dione], with 0.011 µM; and `O=C1CC(c2ccsc2)(c2cccc(Oc3cncnc3)n2)NC(=O)C1Sc1ccccc1Cl` (stereo not shown) [Example 54, 3-(2-chlorophenyl)sulfanyl-6-(6-pyrimidin-5-yloxy-2-pyridyl)-6-(3-thienyl)piperidine-2,4-dione], with 0.201 µM. For `O=C1CC(c2ccsc2)(c2cccc(Oc3ccc(Cl)cc3)n2)NC(=O)C1Sc1ccccc1Cl` (stereo not shown) [Example 58, 6′-(4-chlorophenoxy)-5-((2-chlorophenyl)thio)-4-hydroxy-2-(thiophen-3-yl)-2,3-dihydro-[2,2′-bipyridin]-6(1H)-one] the value was 0.01 µM. As for `COc1ccc(Oc2cccc(C3(c4ccsc4)CC(=O)C(Sc4ccccc4Cl)C(=O)N3)n2)cc1` (stereo not shown) [Example 59, 3-(2-chlorophenyl)sulfanyl-6-[6-(4-methoxyphenoxy)-2-pyridyl]-6-(3-thienyl) piperidine-2,4-dione], the IC50 was 0.056 µM.

Regarding `O=C1CC(c2ccsc2)(c2cccc(Oc3ccc4c(c3)CCC4)n2)NC(=O)C1Sc1ccccc1Cl` (stereo not shown) [Example 60, 5-((2-chlorophenyl)thio)-6′-((2,3-dihydro-1H-inden-5-yl)oxy)-4-hydroxy-2-(thiophen-3-yl)-2,3-dihydro-[2,2′-bipyridin]-6(1H)-one], the IC50 came out at 0.009 µM. Consider `COc1ccccc1Oc1cccc(C2(c3ccsc3)CC(=O)C(Sc3ccccc3Cl)C(=O)N2)n1` (stereo not shown) [Example 61, 3-(2-chlorophenyl)sulfanyl-6-[6-(2-methoxyphenoxy)-2-pyridyl]-6-(3-thienyl) piperidine-2,4-dione], for which the IC50 is 0.02 µM.

For `O=C1CC(c2ccsc2)(c2cccc(Oc3cc(F)cc(F)c3)n2)NC(=O)C1Sc1ccccc1Cl` (stereo not shown) [Example 62, 3-(2-chlorophenyl)sulfanyl-6-[6-(3,5-difluoro-phenoxy)-2-pyridyl]-6-(3-thienyl)piperidine-2,4-dione], the IC50 worked out at 0.036 µM. Consider `O=C1CC(c2ccsc2)(c2cccc(Oc3cccc(Cl)c3)n2)NC(=O)C1Sc1ccccc1Cl` (stereo not shown) [Example 63, 6′-(3-chlorophenoxy)-5-((2-chlorophenyl)thio)-4-hydroxy-2-(thiophen-3-yl)-2,3-dihydro-[2,2′-bipyridin]-6(1H)-one], for which the IC50 turned out to be 0.037 µM.

As for `COc1cccc(Oc2cccc(C3(c4ccsc4)CC(=O)C(Sc4ccccc4Cl)C(=O)N3)n2)c1` (stereo not shown) [Example 64, 3-(2-chlorophenyl)sulfanyl-6-[6-(3-methoxyphenoxy)-2-pyridyl]-6-(3-thienyl) piperidine-2,4-dione], the IC50 came out at 0.126 µM. For `CCC1CN(c2ccc(C3(c4ccsc4)CC(=O)C(Sc4ccccc4Cl)C(=O)N3)cc2)CCO1` (stereo not shown) [Example 66, 3-(2-chlorophenyl)sulfanyl-6-[4-(2-ethylmorpholin-4-yl)phenyl]-6-(3-thienyl) piperidine-2,4-dione] the value was 0.089 µM; for `O=C1CC(c2ccsc2)(c2cccc(OCc3ccccc3)n2)NC(=O)C1Sc1ccccc1Cl` (stereo not shown) [Example 68, 6′-(benzyloxy)-5-((2-chlorophenyl)thio)-4-hydroxy-2-(thiophen-3-yl)-2,3-dihydro-[2,2′-bipyridin]-6(1H)-one], 0.008 µM.
